From patent publication EP2112155B1, “Hydrogensulfate salt of 2-acetoxy-5-(a-cyclopropylcarbonyl-2-fluorobenzyl)-4,5,6,7-tetrahydrothieno[3,2-c]pyridine and its preparation” (Sandoz AG, priority 2008, dated 2009)
Counter-ions that a name gives are not always drawn.

Test: Solubility of various Prasugrel acid addition salts, determined according to European Pharmacopoeia 6.0, 5.11 (2008)
Assay type: physicochemical
Text: As bioavailability depends, among others, on solubility, an optimal active substance for oral application should show a high solubility in a broad pH-range. […] Table 2: Solubility of various Prasugrel acid addition salts

Solubility (Acetate buffer pH 4.5): insoluble
Solubility (Hydrochloric acid medium pH 1.2): sparingly soluble
Solubility (water): insoluble
SMILES: CC(=O)Oc1cc2c(s1)CCN(C(C(=O)C1CC1)c1ccccc1F)C2 (stereo not drawn) [Prasugrel hydrochloride]
